Reference: patent US9732075B2, “Benzimidazole-proline derivatives” (IDORSIA PHARMACEUTICALS LTD, priority 2012, dated 2017)

Legend:
[1] = target: human orexin-2 receptor (Homo sapiens (Human), UniProt O43614); assay: In vitro assay: intracellular calcium measurements (FLIPR), antagonistic activity; assay type: cell-based; details: CHO cells expressing human orexin-2 receptor, orexin-A agonist, geometric mean, read-out: IC50 Ox2
Outline: (§1)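 Read-out: FLIPR fluo-4 calcium peak height in CHO cells bearing human orexin-1 or orexin-2 receptor, relative to orexin-A (approx. EC70) with vehicle. Antagonist preincubation 120 min; agonist orexin-A at 3 nM final. IC50 possibly normalized to an on-plate reference compound.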

[2] = target: human orexin-1 receptor (Homo sapiens (Human), UniProt O43613); assay: as above; assay type: cell-based; details: CHO cells expressing human orexin-1 receptor, orexin-A agonist, geometric mean, read-out: IC50 Ox1
Outline: as §1

Chain of human orexin-2 receptor (O43614 whole entry): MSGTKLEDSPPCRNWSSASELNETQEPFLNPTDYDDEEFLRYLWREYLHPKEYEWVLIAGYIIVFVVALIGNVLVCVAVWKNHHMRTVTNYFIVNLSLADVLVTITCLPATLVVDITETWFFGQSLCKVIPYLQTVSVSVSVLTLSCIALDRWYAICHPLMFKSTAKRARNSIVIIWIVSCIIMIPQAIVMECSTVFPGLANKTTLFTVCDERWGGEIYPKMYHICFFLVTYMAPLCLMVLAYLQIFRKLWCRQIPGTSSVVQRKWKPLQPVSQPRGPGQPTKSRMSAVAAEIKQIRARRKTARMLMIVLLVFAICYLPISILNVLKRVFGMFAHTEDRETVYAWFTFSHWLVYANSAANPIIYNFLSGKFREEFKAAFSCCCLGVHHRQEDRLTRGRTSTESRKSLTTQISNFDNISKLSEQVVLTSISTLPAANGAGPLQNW
Chain of human orexin-1 receptor (O43613 whole entry): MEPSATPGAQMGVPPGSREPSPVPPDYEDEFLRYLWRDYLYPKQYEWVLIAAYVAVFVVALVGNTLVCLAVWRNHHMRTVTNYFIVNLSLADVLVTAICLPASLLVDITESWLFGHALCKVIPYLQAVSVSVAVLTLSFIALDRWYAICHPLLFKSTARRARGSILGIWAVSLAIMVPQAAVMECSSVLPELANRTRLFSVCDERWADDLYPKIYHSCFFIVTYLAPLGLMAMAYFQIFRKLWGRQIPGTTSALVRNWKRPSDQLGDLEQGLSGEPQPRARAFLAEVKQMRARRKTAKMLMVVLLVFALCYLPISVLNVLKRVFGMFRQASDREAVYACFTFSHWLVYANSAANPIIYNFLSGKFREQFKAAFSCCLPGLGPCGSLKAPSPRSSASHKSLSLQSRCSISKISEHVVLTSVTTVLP

IC50 [1] [µM] | IC50 [2] [µM] | SMILES
0.002 | 0.008 | C=C1C[C@@H](c2nc3cc(SC)ccc3[nH]2)N(C(=O)c2nc(C)sc2-c2ccc(C)c(C)c2)C1 [Ex. 6.52]
0.556 | 0.385 | Cc1ccc(-c2ccc(F)cc2C)c(C(=O)N2CCC[C@@]2(C)c2nc3cc(C(F)(F)F)ccc3[nH]2)c1 [Ex. 5.181]
1.07 | 0.006 | Cc1nc(C(=O)N2CC[C@H](C)[C@H]2c2nc3cccc(Cl)c3[nH]2)c(-c2cccc(Cl)c2)s1 [Ex. 4.22]
0.044 | 0.052 | CO[C@H]1CN(C(=O)c2ccccc2-n2cccn2)C(C)(c2nc3c(C)c(Cl)ccc3[nH]2)C1 (stereo partly shown) [Ex. 3.54]
2.93 | 0.043 | Cc1nc(C(=O)N2CC[C@H](C)[C@H]2c2nc3c(F)cccc3[nH]2)c(-c2cccc(Cl)c2)s1 [Ex. 4.18]
0.08 | 0.726 | CSc1ccc2nc([C@@H]3CCCN3C(=O)c3cncnc3-c3ccc(Br)c(Cl)c3)[nH]c2c1 [Ex. 1.54]
0.23 | 0.003 | Cc1ccc(-c2ncccn2)c(C(=O)N2CC[C@H](C)[C@H]2c2nc3ccc(Cl)c(C)c3[nH]2)c1 [Ex. 4.181]
0.001 | 0.006 | C=C1C[C@@H](c2nc3c(C)c(C)ccc3[nH]2)N(C(=O)c2nc(C)sc2-c2ccc(C)c(C)c2)C1 [Ex. 6.47]
0.004 | 0.004 | C=C1CC(c2nc3c(C)cc(C)cc3[nH]2)N(C(=O)c2cc(C)sc2-c2ccc(C)c(C)c2)C1 (stereo not shown) [Ex. 6.76]
1.17 | 0.028 | Cc1ccc(-n2cccn2)c(C(=O)N2CC[C@H](C)[C@H]2c2nc3c(C)cc(Cl)cc3[nH]2)c1 [Ex. 4.95]
1.76 | 0.047 | Cc1cc2[nH]c([C@@H]3[C@@H](C)CCN3C(=O)c3c(F)cccc3-c3cccnc3)nc2cc1Cl [Ex. 4.107]
0.086 | 0.019 | COc1ccc(-c2ccc3c(c2)OCO3)c(C(=O)N2CCC[C@@]2(C)c2nc3c(C)c(Cl)ccc3[nH]2)c1F [Ex. 5.304]
0.452 | 0.032 | C[C@@]1(c2nc3cc(Cl)c(C(F)(F)F)cc3[nH]2)CCCN1C(=O)c1nc(-c2ccccc2)sc1-c1ccc(F)cc1 [Ex. 5.285]
0.388 | 0.405 | Cc1ccc(-c2cccc(C)c2C)c(C(=O)N2CCC[C@@]2(C)c2nc3cc(C(F)(F)F)c(Cl)cc3[nH]2)c1 [Ex. 5.161]
0.11 | 0.114 | COc1ccc2nc([C@@H]3CCCN3C(=O)c3cnc(C)nc3-c3ccc(Cl)c(Cl)c3)[nH]c2c1 [Ex. 1.28]
0.051 | 0.016 | COc1cccc(-c2sc(C)nc2C(=O)N2CCC[C@@]2(C)c2nc3c(F)c(F)ccc3[nH]2)c1 [Ex. 5.213]
1.07 | 0.019 | COc1cc2nc([C@@H]3[C@@H](C)CCN3C(=O)c3nc(C)sc3-c3cc(F)cc(F)c3)[nH]c2cc1OC [Ex. 4.52]
0.615 | 0.054 | COc1ccc(-n2nccn2)c(C(=O)N2CCC[C@@]2(C)c2nc3cc(F)c(Br)cc3[nH]2)c1F [Ex. 5.132]
0.294 | 0.12 | Cc1ccc(-c2ccccc2C)c(C(=O)N2CCC[C@@]2(C)c2nc3cc(C(F)(F)F)ccc3[nH]2)c1 [Ex. 5.186]
0.046 | 0.202 | Cc1ccc(-n2nccn2)c(C(=O)N2CCC[C@H]2c2nc3cccc(Cl)c3[nH]2)c1 [Ex. 1.6]
0.564 | 0.041 | CSc1cccc2nc([C@@H]3CCCN3C(=O)c3cnc(C)nc3-c3ccc(F)cc3)[nH]c12 [Ex. 1.80]
0.009 | 0.883 | C=C1C[C@@H](c2nc3ccc(OC)cc3[nH]2)N(C(=O)c2c(-n3nccn3)ccc(C)c2F)C1 [Ex. 6.141]

IC50 [1] [µM] | IC50 [2] [µM] | SMILES
0.15 | 0.141 | COc1cc2nc([C@]3(C)CCCN3C(=O)c3c(-n4nccn4)ccc(C)c3F)[nH]c2cc1OC [Ex. 5.68]
0.107 | 0.394 | CSc1ccc2nc([C@@H]3CCCN3C(=O)c3cnc(C)nc3-c3ccc(F)cc3)[nH]c2c1 [Ex. 1.50]
0.066 | 0.115 | C=C1C[C@@H](c2nc3cc(Cl)c(C(F)(F)F)cc3[nH]2)N(C(=O)c2ccccc2-n2cccn2)C1 [Ex. 6.188]
2.26 | 0.093 | Cc1ccc(-c2ncccn2)c(C(=O)N2CC[C@H](C)[C@H]2c2nc3cc(C)c(C)cc3[nH]2)c1 [Ex. 4.183]
0.019 | 0.037 | Cc1nc(C(=O)N2CCCC2c2nc3c(C)c(C)ccc3[nH]2)c(-c2cccc(Cl)c2)s1 (stereo not shown) [Ex. 1.115]
0.006 | 0.184 | C=C1C[C@@H](c2nc3cccc(C)c3[nH]2)N(C(=O)c2nc(C)sc2-c2ccc(OC)nc2)C1 [Ex. 6.103]
0.419 | 0.007 | Cc1cc2[nH]c([C@@H]3[C@@H](C)CCN3C(=O)c3cc(C#N)ccc3-c3ccccc3)nc2cc1Cl [Ex. 4.108]
0.007 | 0.016 | CO[C@@H]1C[C@@H](c2nc3ccc(Cl)c(C)c3[nH]2)N(C(=O)c2c(-n3nccn3)ccc(C)c2F)C1 [Ex. 3.13]
0.004 | 0.003 | CO[C@@H]1C[C@@H](c2nc3ccc(Cl)c(C)c3[nH]2)N(C(=O)c2nc(C)sc2-c2ccc(Cl)cc2)C1 [Ex. 3.35]
0.022 | 0.076 | CSc1ccc2nc([C@@H]3CCCN3C(=O)c3cnc(C)nc3-c3ccccc3)[nH]c2c1 [Ex. 1.57]
0.694 | 0.007 | Cc1ccc(-c2ncccn2)c(C(=O)N2CC[C@H](C)[C@H]2c2nc3cc(Cl)cc(C)c3[nH]2)c1 [Ex. 4.182]
0.053 | 0.058 | Cc1ccc(-c2ccccc2C(=O)N2CCC[C@@]2(C)c2nc3cc(C)c(C)cc3[nH]2)cc1 [Ex. 5.107]
0.458 | 0.102 | Cc1nc(C(=O)N2CCCC2c2nc3cc(Br)ccc3[nH]2)c(-c2cccc(Cl)c2)s1 (stereo not shown) [Ex. 1.93]
0.058 | 0.012 | Cc1ccc(C(=O)N2CCC[C@@]2(C)c2nc3cc(C(F)(F)F)ccc3[nH]2)c(-n2nccn2)c1 [Ex. 5.171]
0.01 | 0.058 | C=C1C[C@@H](c2nc3cc(C)c(C)cc3[nH]2)N(C(=O)c2cc(OC)c(OC)cc2-n2nccn2)C1 [Ex. 6.200]
0.507 | 0.046 | Cc1ccc(-n2nccn2)c(C(=O)N2CCC[C@@]2(C)c2nc3c(F)c(F)ccc3[nH]2)c1 [Ex. 5.27]
0.774 | 0.077 | COc1cccc2[nH]c([C@@H]3[C@@H](C)CCN3C(=O)c3cc(C)ccc3-n3nccn3)nc12 [Ex. 4.31]
0.015 | 0.027 | COc1cc2nc([C@]3(C)CCCN3C(=O)c3cc(C)ccc3-n3cccn3)[nH]c2cc1OC [Ex. 5.82]
0.002 | 0.002 | C=C1CC(c2nc3c(C)c(Cl)ccc3[nH]2)N(C(=O)c2nc(C3CC3)sc2-c2cccc(C)c2)C1 (stereo not shown) [Ex. 6.89]
1.2 | 0.414 | COc1cc2nc([C@]3(C)CCCN3C(=O)c3c(-n4nccn4)ccc(OC)c3F)[nH]c2cc1OC [Ex. 5.69]
0.0006 | 0.011 | C=C1C[C@@H](c2nc3ccc(Cl)c(C)c3[nH]2)N(C(=O)c2cc(C)c(C)cc2-n2nccn2)C1 [Ex. 6.130]

SMILES | IC50 [1] [µM] | IC50 [2] [µM]
Cc1ccc(-n2nccn2)c(C(=O)N2CCC[C@@]2(C)c2nc3cc(C(F)(F)F)c(Cl)cc3[nH]2)c1 [Ex. 5.24] | 0.009 | 0.002
